From PMC9866218, “Characterization and Chemical Synthesis of Cm39 (α-KTx 4.8): A Scorpion Toxin That Inhibits Voltage-Gated K^+ Channel KV1.2 and Small- and Intermediate-Conductance Ca^2+-Activated K^+ Channels KCa2.2 and KCa3.1” (Toxins, 2023) come the findings set out here.

The experiment has as its system hKV1.6. The experiment is classed as cell-based, human. The settings on record: CHO cells. The source says: We, therefore, aimed at testing the pharmacological activity of sCm39 on a battery of various potassium and sodium ion channels. Among the tested channels were six members of human voltage-gated K^+ (hKV) channels from Shaker family, hKV1.1-hKV1.6 (Figure 3A–F) and three members of Ca^2+-activated potassium channel; hKCa2.2 (SK2, Figure 3I), the small-conductance Ca^2+-activated channel; hKCa3.1 (IKCa1, SK4. Figure 3J), the intermediate-conductance Ca^2+-activated channel expressed in T lymphocytes; and mKCa1.1 (BK, Slo1, MaxiK, Figure 3H), the large-conductance voltage- and Ca^2+-activated channel of mice. In addition, we also screened the effect of Cm39 on hKV11.1 (hERG1, Figure 3G), a voltage-gated cardiac K^+ channel, and two human voltage-gated sodium (hNaV) channels, hNaV1.4 (Figure 3K) and hNaV1.5 (Figure 3L), expressed in skeletal and cardiac muscles, respectively. These ion channels were heterologously expressed in the CHO or HEK cell lines except for KV1.3. Human peripheral T lymphocytes. They were stimulated with Phytohemagglutinin A (PHA) to increase the KV1.3 channel expression, and Ca^2+-free intracellular solution was used to avoid KCa3.1 channel activation. Appropriate depolarization protocols were used to record ionic currents in voltage-clamped cells (see Figure 3 insets and Material and Methods for details). Freshly dissolved sCm39 in extracellular solution was applied at 1 µM concentration on the cell using a custom-built micro-perfusion system at ~200 µL/min flow rate.
Chinese hamster ovary (CHO) cells (gift from Yosef Yarden, Weizmann Institute of Science, Rehovot, Israel) were maintained by culturing in Dulbecco’s modified Eagle medium (DMEM, Gibco) supplemented with 2 mM L-glutamine, 10% FBS, 100 µg/mL streptomycin and 100 U/mL penicillin-g (Sigma-Aldrich) at a density of 0. 5−1×10^6 cells per mL in a humidified incubator at 37 °C and 5% CO2. Cells were passaged 3 times in a week following a 2–5 min incubation in 0.05% trypsin-EDTA solution at 37 °C. Cultures were used up to passage number 20. PCR-based tests were routinely used to detect mycoplasma infection, only mycoplasma-free cultures were used for experiments.
Those plasmids which lack a fluorescent tag were co-transfected with a plasmid encoding GFP. Transfections were performed at a GFP:channel DNA molar ratio of 1:10 using the Lipofectamine 2000 kit (Invitrogen) according to the manufacturer’s protocol. […] Generally, currents were recorded 24 to 48 h post transfection.
For the measurement of KV1.x, mKCa1.1 and NaV1.x currents the extracellular solution was composed of (in mM) 145 NaCl, 5 KCl, 2.5 CaCl2, 1 MgCl2, 10 HEPES and 5.5 glucose, pH 7.35. In the HK-150 and Na^+-free bath solution bath all Na^+ was substituted by K^+ or Choline-Cl, respectively, other ingredients remained unchanged. In the various TEA^+-containing solutions, Na^+ was substituted by tetraethylammonium-Cl in equimolar concentration (Figure 3). The bath solution for KCa2.2 and KCa3.1 consisted of (in mM) 145 L-Aspartic Na^+ salt, 5 KCl, 2.5 CaCl2, 1 MgCl2, 5.5 glucose and 10 HEPES, pH 7.4 and for KV11.1 (in mM) 140 Choline-Cl, 5 KCl, 2 MgCl2, 2 CaCl2, 10 HEPES, 20 glucose and 0.1 CdCl2, pH 7.35. The osmolarity of bath solutions was ranging between 302 to 308 mOsm/L. A total of 0.1 mg/mL bovine serum albumin (BSA, Sigma-Aldrich, Budapest, Hungary) was added to all the bath solutions before the patch-clamp assay to avoid toxin adsorption to the plastic surfaces of the perfusion system. Internal or pipette solution for recording KV1.x and mKCa1.1 currents consisted of (in mM) 140 KF, 2 MgCl2, 1 CaCl2, 11 EGTA and 10 HEPES, pH 7.22.

Each structure is given as a SMILES string. Entries after “also recorded” stand apart in the source; their conditions may differ.

Consider `CC[C@H](C)[C@@H]1NC(=O)[C@H](C)NC(=O)[C@H](C)NC(=O)[C@H](CCCCN)NC(=O)[C@@H]2CSSC[C@@H](C(=O)N[C@@H](Cc3ccc(O)cc3)C(=O)N[C@@H](Cc3ccc(O)cc3)C(=O)O)NC(=O)[C@H](CCCCN)NC(=O)[C@@H]3CSSC[C@H](NC(=O)[C@H](CCC(=O)O)NC(=O)[C@H](CO)NC(=O)[C@H](CO)NC(=O)[C@H](CO)NC(=O)[C@H](CCCCN)NC(=O)[C@@H](NC(=O)[C@H](CCCCN)NC(=O)[C@H](Cc4c[nH]cn4)NC(=O)[C@H](CC(N)=O)NC(=O)[C@@H](NC(=O)[C@H](Cc4ccccc4)NC(=O)[C@@H](N)[C@@H](C)O)[C@@H](C)CC)CSSC[C@H](NC(=O)[C@H](CCCCN)NC(=O)CNC(=O)[C@H](CO)NC(=O)[C@H](C)NC(=O)[C@H](CCCNC(=N)N)NC(=O)CNC1=O)C(=O)N[C@@H]([C@@H](C)CC)C(=O)N[C@@H](CC(N)=O)C(=O)N[C@@H](CO)C(=O)N[C@@H]([C@@H](C)O)C(=O)N3)C(=O)N[C@@H](CC(C)C)C(=O)N1CCC[C@H]1C(=O)N[C@@H](C)C(=O)N2` [Cm39], for which the “inhibition (in words)” value (1 μM) is “does not inhibit; also recorded: did not show any effect”. The decrease in current (1 µM, 3−5 min, n = 3−5) is recorded as below 3%.
